Inhibition data for 17 molecules are collected here from patent US11225480B2, “Malic enzyme inhibitors” (SUN PHARMA ADVANCED RESEARCH COMPANY LTD, priority 2019, dated 2022).

Holding throughout (type): biochemical
One experiment concerns the target T1, human ME3 enzyme (Homo sapiens, UniProt Q16798).
T1 sequence (Q16798 1-604): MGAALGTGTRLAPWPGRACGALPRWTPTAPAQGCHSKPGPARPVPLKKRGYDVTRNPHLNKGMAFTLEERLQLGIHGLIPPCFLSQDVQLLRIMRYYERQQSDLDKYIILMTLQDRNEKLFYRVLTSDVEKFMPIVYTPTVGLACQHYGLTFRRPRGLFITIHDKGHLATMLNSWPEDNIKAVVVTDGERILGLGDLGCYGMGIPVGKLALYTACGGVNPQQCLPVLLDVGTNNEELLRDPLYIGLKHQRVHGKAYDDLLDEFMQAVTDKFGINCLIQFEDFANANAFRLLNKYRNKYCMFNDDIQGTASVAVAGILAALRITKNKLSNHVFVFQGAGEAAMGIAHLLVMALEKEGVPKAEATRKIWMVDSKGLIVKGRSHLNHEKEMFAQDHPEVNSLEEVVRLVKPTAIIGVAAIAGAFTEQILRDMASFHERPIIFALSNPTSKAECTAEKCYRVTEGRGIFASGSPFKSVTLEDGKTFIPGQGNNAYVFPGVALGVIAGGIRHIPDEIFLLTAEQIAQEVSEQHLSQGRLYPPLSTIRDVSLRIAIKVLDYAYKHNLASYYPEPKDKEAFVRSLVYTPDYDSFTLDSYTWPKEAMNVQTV
Description: ME3 inhibition assay (diaphorase/resazurin coupled fluorescence). The note with it: 10 μM compound concentration; read-out: Malic Enzyme 3 % inhibition (10 μM). In outline: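 Coupled read-out: NADPH made by human ME3 (20 nM stock) drives diaphorase conversion of resazurin (50 μM) to resorufin; buffer 50 mM Tris-HCl pH 7.5, 10 mM MnCl2, 3 mM L-malate.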
On the technique in general: The colour change of resazurin is a common sign of viable cells or microbes.

For another experiment, the target named is human ME2 enzyme (Homo sapiens, UniProt P23368). Description: ME2 inhibition assay (diaphorase/resazurin coupled fluorescence). The note with it: 10 μM compound concentration; read-out: Malic Enzyme 2 % inhibition (10 μM). How it is done:
ME2 catalyzes the oxidative decarboxylation of malate to pyruvate with conversion of the co-factor β-NAD+ to β-NADH. In the fluorescence assay, a coupled reaction is set up where in an enzyme, Diaphorase, utilizes NADH generated by ME2, to convert the dye resazurin to a fluorescent molecule resorufin. Resorufin has a characteristic fluorescence with excitation/emission at 540/600 nm (SLAS Discov., 2017 April 1:2472555217706649).
The enzyme activity inhibition assay is set up in a 200 μL final reaction volume in a 96-well plate. As per the experimental design, 2 μL of the compounds at 100× the desired concentration (10 μM) in DMSO were added to the respective wells with 178 μL of assay buffer (50 mM Tris-HCl pH 7.5, 10 mM MnCl2, 7 mM L-malate, 50 μM Resazurin and 0.025 mg/ml Diapharose). The 96-well plate was incubated on a plate shaker at room temperature for 15 minutes protected from light. The well contents were gently mixed by adding 10 μL of 60 nM human ME2 enzyme to the wells and the plate was incubated on a shaker at room temperature for 5 minutes protected from light. Suitable ‘enzyme only’ and ‘no enzyme’ controls were included in the experiment. The enzymatic reaction was started by adding 10 μL of 2 mM β-NAD+. The reaction was gently mixed and the plate was initially left on a shaker at room temperature for −7 minutes protected from light. Later, the plate was incubated without shaking at room temperature for 2 hours. At the end of 2 hours, the fluorescence of the wells was measured at excitation 540 nm and emission 600 nm. The % enzyme activity of the compounds is obtained by normalizing the data with enzyme only (100%) and no enzyme controls (0%) using GraphPad Prism software 7.04.

Another experiment has as its target T2, human ME1 enzyme (Homo sapiens, UniProt P48163).
T2 sequence (P48163 1-572): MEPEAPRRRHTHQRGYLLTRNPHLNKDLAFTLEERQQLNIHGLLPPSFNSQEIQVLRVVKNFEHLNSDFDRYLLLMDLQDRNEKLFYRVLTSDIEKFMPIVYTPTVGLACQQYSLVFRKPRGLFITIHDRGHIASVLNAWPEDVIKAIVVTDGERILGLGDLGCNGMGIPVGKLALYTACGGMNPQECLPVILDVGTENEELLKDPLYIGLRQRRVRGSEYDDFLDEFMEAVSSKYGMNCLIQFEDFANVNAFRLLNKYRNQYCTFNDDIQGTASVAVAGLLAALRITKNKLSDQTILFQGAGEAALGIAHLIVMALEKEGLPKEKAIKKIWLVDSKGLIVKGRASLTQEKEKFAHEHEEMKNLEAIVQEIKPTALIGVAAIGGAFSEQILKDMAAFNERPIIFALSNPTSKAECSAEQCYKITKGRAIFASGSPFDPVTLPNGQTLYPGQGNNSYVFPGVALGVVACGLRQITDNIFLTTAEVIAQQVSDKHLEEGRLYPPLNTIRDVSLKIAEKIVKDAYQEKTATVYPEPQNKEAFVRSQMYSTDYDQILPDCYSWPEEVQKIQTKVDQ
Description: ME1 inhibition assay (diaphorase/resazurin coupled fluorescence). The note with it: 10 μM compound concentration; read-out: Malic Enzyme 1 % inhibition (10 μM). How it is done: ME1 catalyzes the oxidative decarboxylation of malate to pyruvate with conversion of the co-factor β-NADP+ to β-NADPH. In the fluorescence assay, a coupled reaction is set up where in an enzyme, Diaphorase, utilizes NADPH generated by ME1, to convert the dye resazurin to a fluorescent molecule resorufin. Resorufin has a characteristic fluorescence with excitation/emission at 540/600 nm (SLAS Discov., 2017 April 1:2472555217706649).
The enzyme activity inhibition assay is set up in a 200 μL final reaction volume in a 96-well plate. As per the experimental design, 2 μL of the compounds at 100× the desired concentration (10 μM) in DMSO were added to the respective wells with 178 μL of assay buffer (50 mM Tris-HCl pH 7.5, 10 mM MnCl2, 2 mM L-malate, 10 μM Resazurin and 0.01 mg/ml Diapharose). The 96-well plate was incubated on a plate shaker at room temperature for 15 minutes protected from light. The well contents were gently mixed by adding 10 μL of 20 nM human ME1 enzyme to the wells and the plate was incubated on a shaker at room temperature for 5 minutes protected from light. Suitable ‘enzyme only’ and ‘no enzyme’ controls were included in the experiment. The enzymatic reaction was started by adding 10 μL of 0.3 mM D-NADP+. The reaction was gently mixed and the plate was initially left on a shaker at room temperature for −7 minutes protected from light. Later, the plate was incubated without shaking at room temperature for 2 hours. At the end of 2 hours, the fluorescence of the wells was measured at excitation 540 nm and emission 600 nm. The % enzyme activity of the compounds is obtained by normalizing the data with enzyme only (100%) and no enzyme controls (0%) using GraphPad Prism software 7.04.

Some results are limits rather than exact numbers.

human ME2 enzyme, sequence (P23368 19-584): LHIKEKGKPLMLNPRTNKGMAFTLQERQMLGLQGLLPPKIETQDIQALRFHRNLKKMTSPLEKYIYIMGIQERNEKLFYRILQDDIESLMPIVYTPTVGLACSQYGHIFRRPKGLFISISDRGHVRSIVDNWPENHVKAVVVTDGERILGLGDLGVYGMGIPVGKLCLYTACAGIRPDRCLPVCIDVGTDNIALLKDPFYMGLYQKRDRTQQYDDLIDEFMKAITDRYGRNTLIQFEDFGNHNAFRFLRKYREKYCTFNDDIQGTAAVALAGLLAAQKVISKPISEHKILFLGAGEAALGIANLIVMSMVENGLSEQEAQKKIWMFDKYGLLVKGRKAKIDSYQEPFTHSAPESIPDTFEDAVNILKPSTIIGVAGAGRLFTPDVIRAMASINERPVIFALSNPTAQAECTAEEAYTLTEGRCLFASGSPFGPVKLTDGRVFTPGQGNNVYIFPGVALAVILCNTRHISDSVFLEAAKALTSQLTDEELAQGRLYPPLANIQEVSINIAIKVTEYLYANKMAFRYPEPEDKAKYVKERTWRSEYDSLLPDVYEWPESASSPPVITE

Take `O=C(c1c[nH]c2ccccc12)N1CCN(c2ccc(O)cn2)CC1` [I.43, [4-(5-Hydroxy-pyridin-2-yl)-piperazin-1-yl]-(1H-indol-3-yl)-methanone]: the inhibition (commonly how much of the control response was suppressed) at 10 µM is above 90% on human ME3 enzyme, 50 to 69% on human ME2 enzyme and above 90% on human ME1 enzyme.

For `CC(C)(CC(=O)N1CCN(c2ccc(O)cn2)CC1)c1ccccc1` [I.125, 1-[4-(5-Hydroxy-pyridin-2-yl)-piperazin-1-yl]-3-methyl-3-phenyl-butan-1-one], the inhibition at 10 µM on human ME3 enzyme, at human ME2 enzyme and at human ME1 enzyme was above 90% throughout.

As for `Cn1cc(CC(=O)N2CCN(c3ccc(O)cn3)CC2)c2cc(F)ccc21` [I.165, 2-(5-Fluoro-1-methyl-indol-3-yl)-1-[4-(5-hydroxy-pyridin-2-yl)-piperazin-1-yl]-ethanone], the inhibition at 10 µM on human ME3 enzyme, at human ME2 enzyme and on human ME1 enzyme was above 90% throughout.

`O=C(C1CCCc2ccccc21)N1CCN(c2ccc(O)cn2)CC1` (stereo not drawn) [I.132, [4-(5-Hydroxy-pyridin-2-yl)-piperazin-1-yl]-(1,2,3,4-tetrahydro-naphthalen-1-yl)-methanone]: the figures for the inhibition at 10 µM on human ME3 enzyme, at human ME2 enzyme and on human ME1 enzyme were above 90%, above 90% and 70 to 89%, respectively.

Regarding `O=C(Cc1ccccc1)N1CCN(c2ccc(O)cc2F)CC1` [I.11, 1-[4-(2-Fluoro-4-hydroxy-phenyl)-piperazin-1-yl]-2-phenyl-ethanone], the inhibition at 10 µM at human ME3 enzyme was above 90%; on human ME2 enzyme, 70 to 89%; at human ME1 enzyme it was above 90%.

For the molecule `O=C(Cc1c[nH]c2cc(F)ccc12)N1CCN(c2ccc(O)cn2)CC1` [I.158, 2-(6-Fluoro-1H-indol-3-yl)-1-[4-(5-hydroxy-pyridin-2-yl)-piperazin-1-yl]-ethanone], the inhibition at 10 µM on human ME3 enzyme, at human ME2 enzyme and at human ME1 enzyme was above 90% in each case.

With `O=C(CCc1cccc(C(F)(F)F)c1)N1CCN(c2ccc(O)cn2)CC1` [I.72, 1-[4-(5-Hydroxy-pyridin-2-yl)-piperazin-1-yl]-3-(3-trifluoro-methylphenyl)-propan-1-one], the figures for the inhibition at 10 µM on human ME3 enzyme, on human ME2 enzyme and at human ME1 enzyme were above 90%, 70 to 89% and above 90%, respectively.

Turning to `O=C(Cc1cc(F)cc(F)c1)N1CCN(c2ccc(O)cc2)CC1` [I.148, 2-(3,5-difluoro-phenyl)-1-[4-(4-hydroxy-phenyl)-piperazin-1-yl]-ethanone], the inhibition at 10 µM at human ME3 enzyme, at human ME2 enzyme and on human ME1 enzyme was above 90% in each case.

For `O=C(CC=C(c1ccccc1)c1ccccc1)N1CCN(c2ccc(O)cn2)CC1` [I.94, 1-[4-(5-Hydroxy-2-pyridyl)-piperazin-1-yl]-4,4-diphenyl-but-3-en-1-one], the results for the inhibition at 10 µM on human ME3 enzyme, at human ME2 enzyme and at human ME1 enzyme were above 90%, 70 to 89% and 70 to 89%, respectively.

Turning to `O=C(C1CC(c2ccccc2)C1)N1CCN(c2ccc(O)cn2)CC1` (stereo not drawn) [I.134, [4-(5-Hydroxy-pyridin-2-yl)-piperazin-1-yl]-(3-phenyl-cyclobutyl)-methanone], the inhibition at 10 µM on human ME3 enzyme, at human ME2 enzyme and on human ME1 enzyme was above 90% throughout.

For `O=C(CCc1ccccc1C(F)(F)F)N1CCN(c2ccc(O)cn2)CC1` [I.128, 1-[4-(5-Hydroxy-pyridin-2-yl)-piperazin-1-yl]-3-(2-trifluoro-methylphenyl)-propan-1-one], the inhibition at 10 µM on human ME3 enzyme, on human ME2 enzyme and on human ME1 enzyme was above 90% in each case.

`O=C(C=C1c2ccccc2-c2ccccc21)N1CCN(c2ccc(O)cn2)CC1` [I.60, 2-Fluoren-9-ylidene-1-[4-(5-hydroxy-2-pyridyl)-piperazin-1-yl]ethanone]: the inhibition at 10 µM is above 90% on human ME3 enzyme, 70 to 89% at human ME2 enzyme and 70 to 89% at human ME1 enzyme.

On to `Cc1[nH]c2ccccc2c1CC(=O)N1CCN(c2ccc(O)cn2)CC1` [I.127, 1-[4-(5-Hydroxy-pyridin-2-yl)-piperazin-1-yl]-2-(2-methyl-1H-indol-3-yl)-ethanone], for which the inhibition at 10 µM on human ME3 enzyme, on human ME2 enzyme and on human ME1 enzyme was above 90% in each case.

As to `COCCOc1ccc(CC(=O)N2CCN(c3ccc(O)cc3)CC2)cc1` [I.5, 1-[4-(4-Hydroxy-phenyl)-piperazin-1-yl]-2-[4-(2-methoxy-ethoxy)-phenyl]-ethanone], the inhibition at 10 µM on human ME3 enzyme, on human ME2 enzyme and on human ME1 enzyme was above 90% throughout.

Take `O=C(CCc1c(F)cccc1F)N1CCN(c2ccc(O)cn2)CC1` [I.157, 3-(2,6-Difluoro-phenyl)-1-[4-(5-hydroxy-pyridin-2-yl)-piperazin-1-yl]-propan-1-one]: the inhibition at 10 µM on human ME3 enzyme, at human ME2 enzyme and on human ME1 enzyme was above 90% each time.

With `COC(=O)c1ccccc1CCC(=O)N1CCN(c2ccc(O)cn2)CC1` [I.142, 2-{3-[4-(5-Hydroxy-pyridin-2-yl)-piperazin-1-yl]-3-oxo-propyl}-benzoic acid methyl ester], the inhibition at 10 µM on human ME3 enzyme is above 90%; at human ME2 enzyme it was above 90%; at human ME1 enzyme, 70 to 89%.

`O=C(c1c2ccccc2cc2ccccc12)N1CCN(c2ccc(O)cn2)CC1` [I.64]: the inhibition at 10 µM was above 90% at human ME3 enzyme, 50 to 69% at human ME2 enzyme and 70 to 89% on human ME1 enzyme.
